Consider three compounds from ChEMBL document CHEMBL1140170, “The importance of micelle-bound states for the bioactivities of bifunctional peptide derivatives for delta/mu opioid receptor agonists and neurokinin 1 receptor antagonists” (J Med Chem, 2008).

For test [1], the target named is Mu-type opioid receptor (Rattus norvegicus) (UniProt P33535).
Test [2] deals with Substance-P receptor (Cavia porcellus) (UniProt P30547). Conditions: Hartley, Ileum.
Sequence of Substance-P receptor (Cavia porcellus) (P30547 whole entry): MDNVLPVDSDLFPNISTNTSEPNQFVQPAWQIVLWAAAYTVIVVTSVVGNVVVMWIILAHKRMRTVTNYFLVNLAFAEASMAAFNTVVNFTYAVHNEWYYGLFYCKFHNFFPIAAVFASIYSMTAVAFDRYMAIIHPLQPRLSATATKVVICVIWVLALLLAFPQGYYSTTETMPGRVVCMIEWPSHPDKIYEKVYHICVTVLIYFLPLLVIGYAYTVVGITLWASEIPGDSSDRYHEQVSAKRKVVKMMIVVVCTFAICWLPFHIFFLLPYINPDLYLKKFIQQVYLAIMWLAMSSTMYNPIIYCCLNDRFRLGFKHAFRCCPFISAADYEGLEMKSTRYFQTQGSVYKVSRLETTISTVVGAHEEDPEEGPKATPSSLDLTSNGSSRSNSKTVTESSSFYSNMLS

Sequence of Mu-type opioid receptor (Rattus norvegicus) (P33535 whole entry): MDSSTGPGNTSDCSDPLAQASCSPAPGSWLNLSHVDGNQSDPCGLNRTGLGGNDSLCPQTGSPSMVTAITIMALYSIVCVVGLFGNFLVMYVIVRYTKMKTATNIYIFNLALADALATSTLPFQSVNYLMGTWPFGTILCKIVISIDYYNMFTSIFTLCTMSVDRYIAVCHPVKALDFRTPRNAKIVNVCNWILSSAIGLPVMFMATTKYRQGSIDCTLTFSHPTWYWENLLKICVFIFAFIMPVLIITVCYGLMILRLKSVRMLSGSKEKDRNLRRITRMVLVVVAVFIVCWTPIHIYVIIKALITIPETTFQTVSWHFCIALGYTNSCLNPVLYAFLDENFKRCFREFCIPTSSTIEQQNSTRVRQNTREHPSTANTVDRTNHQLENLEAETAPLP

Take `CSCC[C@H](NC(=O)[C@H](Cc1ccccc1)NC(=O)CNC(=O)[C@@H](C)NC(=O)[C@@H](N)Cc1ccc(O)cc1)C(=O)N1CCC[C@H]1C(=O)N[C@@H](CC(C)C)C(=O)N[C@@H](Cc1c[nH]c2ccccc12)C(=O)NCc1cc(C(F)(F)F)cc(C(F)(F)F)c1`: the pEC50 in test [1] was found to be 8.2 nM. The same compound came in with a Ke in test [2] of 10 nM.

Take `CSCC[C@H](NC(=O)[C@H](Cc1ccccc1)NC(=O)CNC(=O)[C@@H](C)NC(=O)[C@@H](N)Cc1ccc(O)cc1)C(=O)N1CCC[C@H]1C(=O)N[C@@H](CC(C)C)C(=O)N[C@@H](Cc1c[nH]c2ccccc12)C(=O)OCc1cc(C(F)(F)F)cc(C(F)(F)F)c1`: the pEC50 in test [1] was 7.5 nM.

`CSCC[C@H](NC(=O)[C@H](Cc1ccccc1)NC(=O)CNC(=O)[C@@H](C)NC(=O)[C@@H](N)Cc1ccc(O)cc1)C(=O)N1CCC[C@H]1C(=O)N[C@@H](CC(C)C)C(=O)N[C@@H](Cc1c[nH]c2ccccc12)C(=O)NCc1ccccc1`: the pEC50 in test [1] came out at 7.7 nM. The same compound yielded a Ke in test [2] of 9.9 nM.
